According to patent publication US4062950A, “Amino sugar derivatives” (priority 1973, dated 1977):
Where two headings read alike, the source gives them in different places.

Key:
pancreas-α-amylase = biological target: T1, pancreas-α-amylase (Sus scrofa, UniProt P00690); assay: In vitro amylase test; type: biochemical; details: for α-Amylase Inhibition / α-Amylase Inhibition In Vitro: in vitro; for α-Amylase Inhibition: Table II; for α-Amylase Inhibition In Vitro: Table VI; for amylase inhibiting activity of isolated product: isolated product of the Examples
T1 sequence (P00690 16-511): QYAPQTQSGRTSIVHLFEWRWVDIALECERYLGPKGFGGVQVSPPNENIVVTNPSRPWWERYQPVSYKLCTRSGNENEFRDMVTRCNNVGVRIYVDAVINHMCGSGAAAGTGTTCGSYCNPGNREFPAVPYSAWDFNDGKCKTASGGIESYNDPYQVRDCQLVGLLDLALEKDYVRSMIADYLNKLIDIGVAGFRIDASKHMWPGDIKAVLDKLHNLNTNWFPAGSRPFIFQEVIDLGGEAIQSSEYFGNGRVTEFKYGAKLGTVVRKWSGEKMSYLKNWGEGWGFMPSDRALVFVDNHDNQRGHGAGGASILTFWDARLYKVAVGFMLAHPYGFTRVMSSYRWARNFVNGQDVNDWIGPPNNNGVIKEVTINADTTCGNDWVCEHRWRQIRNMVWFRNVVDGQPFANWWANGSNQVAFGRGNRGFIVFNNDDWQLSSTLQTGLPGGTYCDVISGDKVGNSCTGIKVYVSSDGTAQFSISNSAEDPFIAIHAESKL
Method: One amylase inhibitor unit (1 AIU) is defined as the amount of inhibitor which inhibits two amylase units to the extent of 50%. One amylase unit (AU) is the amount of enzyme which under the test conditions specified below splits 1 μequivalent of glucoside bonds in the starch per minute. The μequivalents of split bonds are determined colorimetrically as μequivalents of reducing sugars formed, using dinitrosalicylic acid, and are quoted as μequivalents of maltose equivalents, using a maltose calibration curve. To carry out the test, 0.1 ml of amylase solution (20-22 AU/ml) are mixed with 0-10 μg of inhibitor or 0-20 μl of the solution to be tested in 0.4 ml of 0.02 M sodium glycerophosphate buffer/0.001 M CaCl2, pH 6.9, and the mixture is equilibrated for 10-20 minutes in a water bath at 35° C. The mixture is then incubated for 5 minutes at 35° C with 0.5 ml of a 1% strength starch solution which has been pre-warmed to 35° C (soluble starch No. 1,252 from Merck, Darmstadt), and thereafter 1 ml of dinitrosalicyclic acid reagent (according to P. bernfeld in Colowick-Kaplan, Meth. Enzymol., Volume l, page 149) is added. To develop the color, the batch is heated for 5 minutes on a boiling water bath and then cooled, and 10 ml of distilled water are added. The extinction at 540 nm is measured against a correspondingly made-up blank without amylase. […] The percentage inhibition is plotted as a function of the quotient [formula]

maltase = assay: In vitro maltase test; type: biochemical, pig; details: Table II
Method: One maltase inhibitor unit (MIU) is defined as the amount of inhibitor which inhibits two maltase units to the extent of 50%. One maltase unit (MU) is the amount of enzyme which in one minute, under the test conditions specified below, splits 1 μmol of maltose into 2 μmol of glucose. The μmol of glucose formed are determined quantitatively by means of the glucose oxidase reaction under conditions such that further splitting of maltose by the maltase no longer takes place. To carry out the test, 0.05 ml of solubilized maltase [from the mucous membrane of the small intestine of the pig, according to B. Borgstrom, A, Dahlquist, Acta Chem, Scan. […] The mixture is equilibrated for 10 minutes at 35° C and 0.1 ml of an 0.05 M maltose solution in 0.1 M sodium maleate buffer of pH 6.0, pre-warmed to 35° C, is then added. The mixture is incubated for 20 minutes at 35° C and the maltase reaction is stopped by addition of 1 ml of the glucose oxidase reagent described above, and the incubation is continued for a further 30 minutes at 35° C. Thereafter, 1 ml of 50% strength sulfuric acid is added and a measurement carried out at 545 nm against a corresponding blank.

saccharase = biological target: T2, saccharase (Rattus norvegicus, UniProt P23739); assay: In vivo saccharase inhibition (sucrose overfeeding test) in the fasting rat; details: for ED50: read-out: Saccharase Inhibition (ED50 mg/kg)
T2 construct: from tissue; host or cells: intestine of the living rat (endogenous enzyme)
T2 sequence (P23739 1014-1841 limits assumed): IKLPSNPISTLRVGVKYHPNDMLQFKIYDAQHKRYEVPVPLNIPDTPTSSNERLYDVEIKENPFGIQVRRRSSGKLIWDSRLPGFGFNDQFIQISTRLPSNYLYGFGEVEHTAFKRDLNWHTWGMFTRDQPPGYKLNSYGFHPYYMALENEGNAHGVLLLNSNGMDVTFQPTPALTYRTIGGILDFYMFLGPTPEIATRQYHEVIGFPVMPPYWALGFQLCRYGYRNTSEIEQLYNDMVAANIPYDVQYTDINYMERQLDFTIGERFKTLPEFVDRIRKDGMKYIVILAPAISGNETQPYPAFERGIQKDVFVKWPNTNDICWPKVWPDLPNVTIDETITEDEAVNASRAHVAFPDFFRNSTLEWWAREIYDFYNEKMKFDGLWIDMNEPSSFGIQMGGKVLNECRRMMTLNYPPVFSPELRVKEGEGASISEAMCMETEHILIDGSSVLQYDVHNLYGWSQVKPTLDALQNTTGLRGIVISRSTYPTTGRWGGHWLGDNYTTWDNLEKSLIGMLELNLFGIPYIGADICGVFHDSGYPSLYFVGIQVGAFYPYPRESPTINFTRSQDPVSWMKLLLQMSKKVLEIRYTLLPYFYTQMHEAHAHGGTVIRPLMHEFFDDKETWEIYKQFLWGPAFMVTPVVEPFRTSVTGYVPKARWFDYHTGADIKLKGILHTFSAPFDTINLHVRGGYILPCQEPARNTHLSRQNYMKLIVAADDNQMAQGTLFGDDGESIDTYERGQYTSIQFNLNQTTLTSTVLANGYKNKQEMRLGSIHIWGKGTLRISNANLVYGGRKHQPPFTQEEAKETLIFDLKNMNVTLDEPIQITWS
T2 sequence (P23739 2-1013 partner limits assumed): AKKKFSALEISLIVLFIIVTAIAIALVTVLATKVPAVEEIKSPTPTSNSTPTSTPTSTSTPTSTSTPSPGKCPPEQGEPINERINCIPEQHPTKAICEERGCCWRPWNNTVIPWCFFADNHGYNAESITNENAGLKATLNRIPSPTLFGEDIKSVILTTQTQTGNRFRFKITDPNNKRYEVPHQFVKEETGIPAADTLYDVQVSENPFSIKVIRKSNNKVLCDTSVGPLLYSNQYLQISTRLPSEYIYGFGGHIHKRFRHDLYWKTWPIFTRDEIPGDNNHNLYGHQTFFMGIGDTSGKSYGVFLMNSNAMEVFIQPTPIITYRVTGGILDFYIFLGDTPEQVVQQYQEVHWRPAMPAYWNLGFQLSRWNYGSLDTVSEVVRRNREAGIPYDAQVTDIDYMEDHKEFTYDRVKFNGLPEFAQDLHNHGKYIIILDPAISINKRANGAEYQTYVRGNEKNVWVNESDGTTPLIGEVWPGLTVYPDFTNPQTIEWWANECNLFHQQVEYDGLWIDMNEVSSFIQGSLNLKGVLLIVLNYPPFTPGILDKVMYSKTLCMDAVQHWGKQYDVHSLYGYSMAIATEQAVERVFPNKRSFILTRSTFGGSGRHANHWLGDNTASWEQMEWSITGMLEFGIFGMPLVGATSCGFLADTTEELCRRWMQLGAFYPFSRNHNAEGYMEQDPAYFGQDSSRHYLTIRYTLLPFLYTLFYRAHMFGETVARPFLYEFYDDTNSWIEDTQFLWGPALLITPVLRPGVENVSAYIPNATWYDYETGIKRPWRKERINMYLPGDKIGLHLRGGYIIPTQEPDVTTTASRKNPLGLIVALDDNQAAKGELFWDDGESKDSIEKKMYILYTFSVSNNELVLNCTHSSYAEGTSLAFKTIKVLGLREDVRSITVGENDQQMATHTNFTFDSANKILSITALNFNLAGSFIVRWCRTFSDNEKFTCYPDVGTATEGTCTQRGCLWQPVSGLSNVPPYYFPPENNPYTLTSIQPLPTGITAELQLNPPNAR
Method: The produce an alimentary hyperglycemia and hyperinsulinaemia, groups of 6 fasting rats are given (a) 2.5 g of sucrose, (b) 2.5 g of maltose or (c) 1 g of boiled starch orally, in aqueous solution or suspension. Six other rats are given the same carbohydrates in the same amount and a glycoside hydrolase inhibitor in the amount indicated. In addition, six other rats are given an appropriate volume of saline. The blood glucose and the serum insulin are then measured at short intervals of time, in the blood from the retro-orbital venous plexus. Blood glucose determinations are carried out in the Auto-Analyser device (Technicon), according to Hoffmann: J. biol.

[1] = 2.5 g sucrose + 25 SIU oral, 15 Min.
[2] = 2.5 g sucrose + 25 SIU oral, 30 Min.
[3] = 2.5 g sucrose + 25 SIU oral, 45 Min.
[4] = 2.5 g sucrose + 100 SIU oral, 15 Min.
[5] = 2.5 g sucrose + 100 SIU oral, 30 Min.
[6] = 2.5 g sucrose + 100 SIU oral, 45 Min.
[7] = 2.5 g sucrose + 50 SIU oral, 15 Min.
[8] = 2.5 g sucrose + 50 SIU oral, 30 Min.
[9] = 2.5 g sucrose + 50 SIU oral, 45 Min.
[10] = ED50, sucrose, fasting rat, Table IV, read-out: Saccharase Inhibition In Vitro (ED50 mg/kg)

SMILES | α-Amylase Inhibition (pancreas-α-amylase) | α-Amylase Inhibition In Vitro (pancreas-α-amylase) | amylase inhibiting activity of isolated product (pancreas-α-amylase) | Maltase Inhibition (maltase) | Blood Glucose (Mean ± SD) (saccharase; [1]) [mg%] | Blood Glucose (Mean ± SD) (saccharase; [2]) [mg%] | Blood Glucose (Mean ± SD) (saccharase; [3]) [mg%] | Blood Glucose (Mean ± SD) (saccharase; [4]) [mg%] | Blood Glucose (Mean ± SD) (saccharase; [5]) [mg%] | Blood Glucose (Mean ± SD) (saccharase; [6]) [mg%] | ED50 (saccharase; rat) [mg/kg] | Blood Glucose (Mean ± SD) (saccharase; [7]) [mg%] | Blood Glucose (Mean ± SD) (saccharase; [8]) [mg%] | Blood Glucose (Mean ± SD) (saccharase; [9]) [mg%] | Blood Glucose (Mean ± SD) (saccharase; 2.5 g sucrose + 200 SIU oral, 15 Min.) [mg%] | Blood Glucose (Mean ± SD) (saccharase; 2.5 g sucrose + 200 SIU oral, 30 Min.) [mg%] | Blood Glucose (Mean ± SD) (saccharase; 2.5 g sucrose + 200 SIU oral, 45 Min.) [mg%] | ED50 (saccharase; [10]) [mg/kg]
C[C@H]1O[C@H](O[C@H]2[C@H](O)[C@@H](O)[C@@H](O[C@H]3[C@H](O)[C@@H](O)C(O)O[C@@H]3CO)O[C@@H]2CO)[C@H](O)[C@@H](O)[C@@H]1N[C@H]1C=C(CO)[C@@H](O)[C@H](O)[C@H]1O (stereo partly drawn) [Formula IIIB, O-{4,6-bisdesoxy-4-[1 S-(1,4,6/5)-4,5,6-trihydroxy-3-hydroxymethylcyclohex-2-en-1-ylamino]-α-D-glucopyranosyl}-(1→4)-O-α-D-glucopyranosyl-(1→4)-D-glucopyranose] | 300,000 AIU/g | 300 AIU/mg | 0.3 × 10^6 AIU/g | 15,000 MIU/g | 71 ± 3.7 | 100 ± 7.3 | 107 ± 2.4 | 58 ± 5.9 | 92 ± 4.0 | 98 ± 5.0 | 0.21 | – | – | – | – | – | – | –
C[C@H]1O[C@H](O[C@H]2[C@H](O)[C@@H](O)C(O)O[C@@H]2CO)[C@H](O)[C@@H](O)[C@@H]1N[C@H]1C=C(CO)[C@@H](O)[C@H](O)[C@H]1O (stereo partly drawn) [Formula IIB, O-{4,6-bisdesoxy-4-[1 S-(1,4,6/5)-4,5,6-trihydroxy-3-hydroxymethylcyclohex-2-en-1-ylamino]-α-D-glucopyranosyl}-(1→4)-D-glucopyranose] | 300,000 AIU/g | 300 AIU/mg | 0.3 × 10^6 AIU/g | 5,000 MIU/g | – | – | – | 89 ± 6.5 | 111 ± 4.1 | 116 ± 3.9 | – | 105 ± 11 | 123 ± 5.2 | 128 ± 11 | 72 ± 4.6 | 95 ± 9.1 | 104 ± 9.6 | 3
C[C@H]1O[C@H](O[C@H]2[C@H](O)[C@@H](O)[C@@H](O[C@H]3[C@H](O)[C@@H](O)C(O)O[C@@H]3CO)O[C@@H]2CO)[C@H](O)[C@@H](O)[C@@H]1N[C@H]1C=C(CO)[C@@H](O[C@H]2O[C@H](CO)[C@@H](O)[C@H](O)[C@H]2O)[C@H](O)[C@H]1O (stereo partly drawn) [Formula V, O-{4,6-bisdesoxy-4-[1 S-(1,4,6/5)-4,5,6-trihydroxy-3-hydroxymethyl-4-O-α-D-glucopyranosyl-(1→4)-cyclohex-2-en-1-ylamino]-α-D-glycopyranosyl}-(1→4)-O-α-D-glucopyranosyl-(1→4)-D-glucopyranose] | 1,400,000 AIU/g | 1,400 AIU/mg | 1.4 × 10^6 AIU/g | 5,000 MIU/g | 88 ± 11.4 | 101 ± 12.0 | 104 ± 7.4 | 81 ± 7.2 | 90 ± 8.0 | 97 ± 1.6 | – | 91 ± 9.4 | 106 ± 7.0 | 94 ± 9.0 | – | – | – | 2.65
